The values below come from the METLIN SMRT retention time set (Domingo-Almenara et al. 2019).

Molecules are shown by their SMILES.

A short description of this data set: gradient 5% acetonitrile 3 min, to 50% in 2 min, to 85% in 15 min, held 3 min, 100 µL/min. The conditions noted are these: column: Zorbax Extend-C18 2.1 x 50 mm; eluents: water / acetonitrile, 0.1% formic acid. In outline:
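Pure standards were run in mixtures of ~100 molecules by HPLC coupled to a quadrupole time-of-flight mass spectrometer. The column was a Zorbax Extend-C18 (2.1 × 50 mm, 1.8 μm) at 100 μL/min, with water and acetonitrile each containing 0.1% formic acid, in positive and negative ionization mode. Dead and dwell volumes were 40 μL and 900 μL. Retention time was taken from computationally picked adduct peaks, each manually inspected, with data collected over 3 months.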
`COc1cccc(CNc2cc(-n3nc(C)cc3C)ncn2)c1`: the RP-LC retention time was 896 s.
For `N#Cc1cccc(CN2CCC(F)(F)C(CO)C2)c1` (centres undefined) the value was 551 s; for `COc1ccc(N2CCN(c3nc4c(c(Nc5ccccc5)n3)C(=O)CCC4)CC2)cc1`, 1210 s.
The molecule `CCc1ccc(CNC(=O)c2ccc3[nH]c4c(c3c2)CN(C(C)=O)CC4)cc1` had an RP-LC retention time of 680 s.
For `O=C(Cn1cnc2nc(N3CCC(C(=O)NC4CC4)CC3)sc2c1=O)Nc1ccccc1F` the value was 885 s; for `O=C(NC1CCc2nnc(C3CC3)n2CC1)c1ccsc1` (centres undefined), 594 s; for `Cc1ccc(S(=O)(=O)N2CC=C(N)N2)cc1`, 684 s.
With `CCOC(=O)CCCn1nc(C)c2c(C)n(-c3ccccc3)nc2c1=O` the figure was 829 s; with `Cc1coc2c(C)c3oc(=O)c(CCC(=O)NCCc4c[nH]c5ccccc45)c(C)c3cc12`, 964 s.
Molecule `COc1ccc2[nH]c3c(c2c1)CCN1C(=O)N(c2ccccc2OC)C(=O)C31C` (centres undefined) came in with an RP-LC retention time of 884 s.
Molecule `CC(C)NC(=O)N(CC(=O)N1CCc2sccc2C1COc1ccccc1)C(C)C` (centres undefined) registered an RP-LC retention time of 892 s.
With `Cc1nc2c(NC(=O)c3cccs3)cccn2n1` the figure was 690 s.
Molecule `COc1ccc(CC(=O)Nc2ccc(-c3nc(Cn4nc(C)cc4C)c(C)o3)cc2)cc1` returned an RP-LC retention time of 903 s.
Turning to `CCN1C(=O)C(CC(=O)NCCCOC)Sc2ncccc21` (centres undefined), the RP-LC retention time was found to be 620 s.
For `CC(C)(C)OC(=O)N1CCN(c2ncnc(N)c2[N+](=O)[O-])CC1` the value was 691 s; for `Cc1ccccc1NC(=O)N1CCCC1c1nc(-c2cccc(Cl)c2)no1` (centres undefined), 1050 s.
Regarding `CCOc1ccc(-c2cc(=O)n(CCCC(=O)Nc3ccc4sc(C)nc4c3)cn2)cc1`, the RP-LC retention time came out at 721 s.
In the case of `CN1C(=O)COc2ccc(-c3csc(NC(=O)C(C)(C)C)n3)cc21`, the RP-LC retention time turned out to be 856 s.
Molecule `O=C(NCc1ccc2c(c1)OCO2)C1CCCN(c2ncnc3c2nc2n3CCCCC2)C1` (centres undefined) registered an RP-LC retention time of 750 s.
With `Cc1cc(C(=O)N2CCC(c3noc(N)c3C(C)C)CC2)c(C)o1` the figure was 759 s.
For `COc1ccc(N2CCN(c3nc4ccc(C)cc4cc3-c3noc(C)n3)CC2)cc1`, the RP-LC retention time worked out at 700 s.
For `CCOC(=O)c1nc(Nc2ccc(S(=O)(=O)Nc3ncccn3)cc2)c2ccccc2n1` the value was 688 s.
In turn, `CC(NC(=O)c1ccccc1F)C(=O)N1CCN(c2ccccn2)CC1` (centres undefined) gave an RP-LC retention time of 574 s.
For `COc1ccc(CNC(=O)C2(C)CCN(S(=O)(=O)c3ccc(Br)s3)CC2)cc1` the value was 961 s; for `CC(=O)Nc1ccc(NC(=O)c2ccc3nc(-c4ccc(Cl)cc4)cn3c2)cc1`, 677 s; for `CCc1ccc2[nH]c3c(c(=O)c2c1)CN(CC(=O)NCc1cccc(OC)c1)CC3`, 629 s.
With `CCOC(=O)c1ccc(Nc2c(-c3ccc(C(=O)OC)cc3)nc3cnccn23)cc1` the figure was 856 s.
With `CCCN(C)C(=O)c1cn2ccnc(-c3ccc(C)cc3)c2n1` the figure was 956 s; with `Cc1ccc(C2Cn3cnc(C(=O)N4CCC(C(=O)NCc5ccccc5Cl)CC4)c3CO2)cc1` (centres undefined), 823 s.
The molecule `O=C(Nc1ccc(OC(F)(F)F)cc1)C1CCN(S(=O)(=O)c2ccc3[nH]c(=O)ccc3c2)CC1` yielded an RP-LC retention time of 831 s.
With `Cc1cc(F)ccc1N1C(=O)CN(S(=O)(=O)c2ccccc2)CC1(C)C(=O)NC1CCCC1` (centres undefined) the figure was 928 s.
For `CCC(=O)N(C1CCOCC1)C1CCN(S(=O)(=O)c2cccc(Cl)c2)CC1` the value was 872 s; for `CCCNC(=O)CSc1ccc(-n2nc3c(c2C)CCC3)nn1`, 865 s.
As to `CCn1c(=O)c(N2CCCC(C(=O)N3CCN(c4ccc(F)cc4)CC3)C2)nc2ccccc21` (centres undefined), the RP-LC retention time amounted to 1090 s.
Take `OC[C@@H]1CN(C2CCCC2)C[C@H]1c1nc(-c2ccncc2)no1`: the RP-LC retention time turned out to be 553 s.
With `Cn1cc(CC(=O)NCc2ccc(Br)cc2)c2cccnc21` the figure was 736 s; with `NC(=O)c1cc[nH]c1C1CCCN(C(=O)c2cscn2)C1` (centres undefined), 579 s; with `COc1ccc(-c2nnc(-c3cc(S(=O)(=O)N4CCC(C)CC4)ccc3Cl)o2)cc1`, 1160 s.
For `Cc1[nH]c(C(=O)N2CCCC(C(=O)NC(C)CCc3ccccc3)C2)c(C)c1C(=O)OC(C)C` (centres undefined) the value was 955 s; for `O=C(C1CCCN(c2ncnc3c2nc2n3CCCCC2)C1)N1CCN(c2ccccn2)CC1` (centres undefined), 592 s; for `CCOC(=O)C1CCN(C(=O)Cc2csc(NC(=O)c3ccco3)n2)CC1`, 649 s.
For `CCN1CCN(c2ccc(-c3ccc(C)c(S(=O)(=O)N4CCOCC4)c3)nn2)CC1` the value was 612 s; for `CC(=O)c1ccc(S(=O)(=O)NCCC2CCN(C(=O)c3ccc(F)cc3)CC2)cc1`, 795 s; for `COc1ccc(Cl)cc1NC(=O)NC1CCCCC1N1C(=O)CSC1=O` (centres undefined), 870 s.
As for `CCCNC(=O)C1CCN(c2ccc(SCC(=O)Nc3ccc(S(C)(=O)=O)cc3)nn2)CC1`, the RP-LC retention time came out at 593 s.
For `O=C(CCn1c(N2CCCC2)nc2ccsc2c1=O)N1CCN(c2ccccc2F)CC1` the value was 849 s; for `O=C(Cc1ccccc1Br)NC1CCN(c2cc(-c3ccc(F)cc3)[nH]n2)C1` (centres undefined), 752 s; for `CCOC(=O)c1c(NC(=O)CN2CCN(c3ncccn3)CC2)sc2c1CCC2`, 1080 s.
`COc1cccc(NC(=O)N2CC(c3nc(C)no3)C3(CCOCC3)C2)c1` (centres undefined) returned an RP-LC retention time of 703 s.
Molecule `Cc1ccccc1-n1c(=O)c2sccc2n(Cc2nc(-c3ccc(C(F)(F)F)cc3)no2)c1=O` yielded an RP-LC retention time of 1120 s.
In turn, `COc1ccc(-c2nnc(Cc3nc(-c4ccccc4C)no3)o2)cc1OC` registered an RP-LC retention time of 957 s.
For `CCOc1ccc(N2CC(c3nnc(NC(=O)c4ccc(C(C)(C)C)cc4)o3)CC2=O)cc1` (centres undefined) the value was 935 s; for `Cc1ccnn1-c1ccc(SCC(=O)Nc2cccc(F)c2)nn1`, 870 s; for `CNC(=O)c1[nH]c2ccc(F)cc2c1N1CCCC1=O`, 658 s.
Turning to `CCS(=O)(=O)N1CC(=O)N(c2ccc(C)cc2)C(C)(C(=O)NCc2ccc(F)cc2)C1` (centres undefined), the RP-LC retention time was 834 s.
For `Cc1ccc(Nc2nc(NCCO)c3cnn(C)c3n2)cc1C` the value was 610 s; for `CC(C(=O)NCCc1c[nH]c2ccccc12)C1CCN(S(=O)(=O)c2cccs2)CC1` (centres undefined), 841 s; for `COC(=O)c1c(C)[nH]c(C(=O)N2CCCC(C(=O)NCc3cccnc3)C2)c1C` (centres undefined), 577 s.
With `O=C(c1c(F)cccc1Cl)N1CCN(c2nccn2-c2ccccc2F)CC1` the figure was 574 s.
